Experimental data taken from the supplement of paper PMC10627819.

What was measured:
S. pneumoniae D39V [1] = experiment: Bliss interaction score (quartile over a dose matrix) (fitness difference); higher = more antagonism (negative = synergy)
In short: (§1)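 Growth in each well was taken as OD595 at entry into stationary phase. Dividing by the plate's robust no-drug mean and capping at 1 gave fitness, and single-drug fitness was inferred from the combination data. The Bliss score, observed minus product-expected fitness, is summarised by quartiles over technical, biological and donor/recipient replicates.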

B. subtilis 168 [2] = experiment: as above
In short: as §1

S. aureus DSM 20231 = experiment: as above
In short: as §1

S. aureus Newman [3] = experiment: as above
In short: as §1

S. pneumoniae D39V [4] = experiment: fitness (endpoint OD595 vs no drug) (fraction); higher = more growth
In short: (§2)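 Fitness compares growth at the stationary-phase transition with the robust mean of no-drug control wells, as a ratio of optical densities. The ratio is capped at 1. Wells of 384-well plates held 30 µl, or 55 µl for S. pneumoniae, inoculated at OD595 0.01. Readings at OD595 every 30 min for 14 h at 37 °C were corrected against the first reading.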

S. aureus Newman [5] = experiment: as above; settings: one replicate
In short: as §2

B. subtilis 168 [6] = experiment: as above; settings: one replicate, main component drawn
In short: as §2
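For Bliss interaction score (quartile over a dose matrix) in this document: first quartile when negative (synergy) and third quartile when positive (antagonism).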

SMILES: Cc1ncc([N+](=O)[O-])n1CCO [Metronidazole] + C/C(=C\C(=O)OCCCCCCCCC(=O)O)C[C@@H]1OC[C@H](C[C@@H]2O[C@H]2[C@@H](C)[C@H](C)O)[C@@H](O)[C@H]1O [Pseudomonic acid]
- Bliss interaction score (S. pneumoniae D39V [1]): 0.0684
- Bliss interaction score (B. subtilis 168 [2]): -0.0197
- Bliss interaction score (S. aureus DSM 20231): 0.0111
- Bliss interaction score (S. aureus Newman [3]): 0.0128
- fitness (S. pneumoniae D39V [4]; first compound 1.073 µg/mL, partner 0.03 µg/mL): 0.903
- fitness (S. pneumoniae D39V [4]; first compound 1.073 µg/mL, partner 0.12 µg/mL): 0.529
- fitness (S. pneumoniae D39V [4]; first compound 1.25 µg/mL, partner 0.03 µg/mL): 0.932
- fitness (S. pneumoniae D39V [4]; first compound 1.25 µg/mL, partner 0.06 µg/mL): 0.816
- fitness (S. pneumoniae D39V [4]; first compound 1.25 µg/mL, partner 0.12 µg/mL): 0.57
- fitness (S. pneumoniae D39V [4]; first compound 2.145 µg/mL, partner 0.03 µg/mL): 0.859
- fitness (S. pneumoniae D39V [4]; first compound 2.145 µg/mL, partner 0.12 µg/mL): 0.632
- fitness (S. pneumoniae D39V [4]; first compound 2.5 µg/mL, partner 0.03 µg/mL): 0.96
- fitness (S. pneumoniae D39V [4]; first compound 2.5 µg/mL, partner 0.06 µg/mL): 0.829
- fitness (S. pneumoniae D39V [4]; first compound 2.5 µg/mL, partner 0.12 µg/mL): 0.596
- fitness (S. pneumoniae D39V [4]; first compound 4.29 µg/mL, partner 0.03 µg/mL): 0.877
- fitness (S. pneumoniae D39V [4]; first compound 4.29 µg/mL, partner 0.06 µg/mL): 0.81
- fitness (S. pneumoniae D39V [4]; first compound 4.29 µg/mL, partner 0.12 µg/mL): 0.575
- fitness (S. pneumoniae D39V [4]; first compound 5 µg/mL, partner 0.03 µg/mL): 0.92
- fitness (S. pneumoniae D39V [4]; first compound 5 µg/mL, partner 0.06 µg/mL): 0.816
- fitness (S. pneumoniae D39V [4]; first compound 5 µg/mL, partner 0.12 µg/mL): 0.588
- fitness (S. aureus Newman [5]; first compound 0.625 µg/mL, partner 0.0313 µg/mL): 0.0517
- fitness (S. aureus Newman [5]; first compound 0.625 µg/mL, partner 0.0625 µg/mL): 0.0386
- fitness (S. aureus Newman [5]; first compound 0.625 µg/mL, partner 0.125 µg/mL): 0.0386
- fitness (S. aureus Newman [5]; first compound 1.25 µg/mL, partner 0.0313 µg/mL): 0.0718
- fitness (S. aureus Newman [5]; first compound 1.25 µg/mL, partner 0.0625 µg/mL): 0.0347
- fitness (S. aureus Newman [5]; first compound 1.25 µg/mL, partner 0.125 µg/mL): 0.0514
- fitness (S. aureus Newman [5]; first compound 2.5 µg/mL, partner 0.0313 µg/mL): 0.0759
- fitness (S. aureus Newman [5]; first compound 2.5 µg/mL, partner 0.0625 µg/mL): 0.0304
- fitness (S. aureus Newman [5]; first compound 2.5 µg/mL, partner 0.125 µg/mL): 0.0492

SMILES: Cc1ncc([N+](=O)[O-])n1CCO [Metronidazole] + CCC(C)C1C(=O)NC(=C)C(=O)NC(C(=O)NC(CSCC(C(=O)N1)NC(=O)/C(=C/C)/NC(=O)C(C(C)CC)N)C(=O)NC2C(SCC(NC(=O)CNC(=O)C3CCCN3C2=O)C(=O)NC(CCCCN)C(=O)NC4C(SCC(NC(=O)CNC(=O)C(NC(=O)C(NC(=O)C(NC(=O)CNC4=O)C)CC(C)C)CCSC)C(=O)NC(CC(=O)N)C(=O)NC(CCSC)C(=O)NC(CCCCN)C(=O)NC5C(SCC6C(=O)NC(C(=O)NC(CSC(C(C(=O)N6)NC(=O)C(NC5=O)C)C)C(=O)NC(CO)C(=O)NC(C(C)CC)C(=O)NC(CC7=CN=CN7)C(=O)NC(C(C)C)C(=O)NC(=C)C(=O)NC(CCCCN)C(=O)O)CC8=CN=CN8)C)C)C)CC(C)C [Nisin]
- Bliss interaction score (S. pneumoniae D39V [1]; main component drawn): 0.0647
- Bliss interaction score (B. subtilis 168 [2]; main component drawn): 0.0914
- Bliss interaction score (S. aureus DSM 20231; main component drawn): 0.153
- Bliss interaction score (S. aureus Newman [3]; main component drawn): 0.0893
- fitness (S. pneumoniae D39V [4]; first compound 1.073 µg/mL, partner 3.2 µg/mL, main component drawn): 0.0352
- fitness (S. pneumoniae D39V [4]; first compound 1.073 µg/mL, partner 6.4 µg/mL, main component drawn): 0.0007
- fitness (S. pneumoniae D39V [4]; first compound 1.25 µg/mL, partner 0.4275 µg/mL, main component drawn): ≥ 1
- fitness (S. pneumoniae D39V [4]; first compound 1.25 µg/mL, partner 0.855 µg/mL, main component drawn): ≥ 1
- fitness (S. pneumoniae D39V [4]; first compound 1.25 µg/mL, partner 1.71 µg/mL, main component drawn): 0.127
- fitness (S. pneumoniae D39V [4]; first compound 2.145 µg/mL, partner 1.6 µg/mL, main component drawn): 0.809
- fitness (S. pneumoniae D39V [4]; first compound 2.145 µg/mL, partner 3.2 µg/mL, main component drawn): 0.0201
- fitness (S. pneumoniae D39V [4]; first compound 2.145 µg/mL, partner 6.4 µg/mL, main component drawn): 0
- fitness (S. pneumoniae D39V [4]; first compound 2.5 µg/mL, partner 0.4275 µg/mL, main component drawn): ≥ 1
- fitness (S. pneumoniae D39V [4]; first compound 2.5 µg/mL, partner 0.855 µg/mL, main component drawn): ≥ 1
- fitness (S. pneumoniae D39V [4]; first compound 2.5 µg/mL, partner 1.71 µg/mL, main component drawn): 0.121
- fitness (S. pneumoniae D39V [4]; first compound 4.29 µg/mL, partner 1.6 µg/mL, main component drawn): 0.747
- fitness (S. pneumoniae D39V [4]; first compound 4.29 µg/mL, partner 3.2 µg/mL, main component drawn): 0.0174
- fitness (S. pneumoniae D39V [4]; first compound 4.29 µg/mL, partner 6.4 µg/mL, main component drawn): 0
- fitness (S. pneumoniae D39V [4]; first compound 5 µg/mL, partner 0.4275 µg/mL, main component drawn): 0.968
- fitness (S. pneumoniae D39V [4]; first compound 5 µg/mL, partner 0.855 µg/mL, main component drawn): ≥ 1
- fitness (S. pneumoniae D39V [4]; first compound 5 µg/mL, partner 1.71 µg/mL, main component drawn): 0.1
- fitness (B. subtilis 168 [6]; first compound 0.625 µg/mL, partner 0.5 µg/mL): 0.831
- fitness (B. subtilis 168 [6]; first compound 0.625 µg/mL, partner 1 µg/mL): 0.838
- fitness (B. subtilis 168 [6]; first compound 0.625 µg/mL, partner 1.25 µg/mL): 0.909
- fitness (B. subtilis 168 [6]; first compound 0.625 µg/mL, partner 1.6 µg/mL): 0.796
- fitness (B. subtilis 168 [6]; first compound 0.625 µg/mL, partner 2 µg/mL): 0.571
- fitness (B. subtilis 168 [6]; first compound 0.625 µg/mL, partner 2.5 µg/mL): 0.366
- fitness (B. subtilis 168 [6]; first compound 0.625 µg/mL, partner 3.2 µg/mL): 0.0225
- fitness (B. subtilis 168 [6]; first compound 0.625 µg/mL, partner 4 µg/mL): 0.61
- fitness (B. subtilis 168 [6]; first compound 0.625 µg/mL, partner 5 µg/mL): 0.0544
- fitness (B. subtilis 168 [6]; first compound 0.625 µg/mL, partner 6.4 µg/mL): 0.0311
- fitness (B. subtilis 168 [6]; first compound 0.625 µg/mL, partner 8 µg/mL): 0.0261
- fitness (B. subtilis 168 [6]; first compound 0.625 µg/mL, partner 16 µg/mL): 0.0228
- fitness (B. subtilis 168 [6]; first compound 1.25 µg/mL, partner 0.5 µg/mL): 0.806
- fitness (B. subtilis 168 [6]; first compound 1.25 µg/mL, partner 1 µg/mL): 0.797
- fitness (B. subtilis 168 [6]; first compound 1.25 µg/mL, partner 1.25 µg/mL): 0.939
- fitness (B. subtilis 168 [6]; first compound 1.25 µg/mL, partner 1.6 µg/mL): 0.809
- fitness (B. subtilis 168 [6]; first compound 1.25 µg/mL, partner 2 µg/mL): 0.528
- fitness (B. subtilis 168 [6]; first compound 1.25 µg/mL, partner 2.5 µg/mL): 0.666
- fitness (B. subtilis 168 [6]; first compound 1.25 µg/mL, partner 3.2 µg/mL): 0.03
- fitness (B. subtilis 168 [6]; first compound 1.25 µg/mL, partner 4 µg/mL): 0.534
- fitness (B. subtilis 168 [6]; first compound 1.25 µg/mL, partner 5 µg/mL): 0.0891
- fitness (B. subtilis 168 [6]; first compound 1.25 µg/mL, partner 6.4 µg/mL): 0.0509
- fitness (B. subtilis 168 [6]; first compound 1.25 µg/mL, partner 8 µg/mL): 0.0271
- fitness (B. subtilis 168 [6]; first compound 1.25 µg/mL, partner 16 µg/mL): 0.0235
- fitness (B. subtilis 168 [6]; first compound 2.5 µg/mL, partner 0.5 µg/mL): 0.795
- fitness (B. subtilis 168 [6]; first compound 2.5 µg/mL, partner 1 µg/mL): 0.803
- fitness (B. subtilis 168 [6]; first compound 2.5 µg/mL, partner 1.25 µg/mL): 0.91
- fitness (B. subtilis 168 [6]; first compound 2.5 µg/mL, partner 1.6 µg/mL): 0.755
- fitness (B. subtilis 168 [6]; first compound 2.5 µg/mL, partner 2 µg/mL): 0.537
- fitness (B. subtilis 168 [6]; first compound 2.5 µg/mL, partner 2.5 µg/mL): 0.616
- fitness (B. subtilis 168 [6]; first compound 2.5 µg/mL, partner 3.2 µg/mL): 0.0513
- fitness (B. subtilis 168 [6]; first compound 2.5 µg/mL, partner 4 µg/mL): 0.333
- fitness (B. subtilis 168 [6]; first compound 2.5 µg/mL, partner 5 µg/mL): 0.149
- fitness (B. subtilis 168 [6]; first compound 2.5 µg/mL, partner 6.4 µg/mL): 0.0479
- fitness (B. subtilis 168 [6]; first compound 2.5 µg/mL, partner 8 µg/mL): 0.0234
- fitness (B. subtilis 168 [6]; first compound 2.5 µg/mL, partner 16 µg/mL): 0.015
